Results published in patent US12268694B2, “Combination pharmaceutical agents as RSV inhibitors” (Enanta Pharmaceuticals, Inc., priority 2017, dated 2025).
Where two headings read alike, the source gives them in different places.

How the values were obtained:
HEp-2 cells = experiment: Cytotoxicity in parallel to the RSV-A assay (no virus), ATPlite readout; type: cell-based, human
Method: Following extensive parameter testing, the final assay is run as follows: HEp-2 cells are seeded into the inner 60 wells of a 96-well plate at 8,000 cells per well in a volume of 50 μL using Growth Media (DMEM without phenol red, 1% L-Glut, 1% Penn/Strep, 1% nonessential amino acids, 10% heat-inactivated FBS). 2-fold serial dilutions of control and test compounds are added to the wells in duplicate in a total volume of 25 μL. Viral stock is then added to the wells at a multiplicity of infection (MOI) of 0.1 in a volume of 25 μL, bringing the total volume of each well to 100 μL. The MOI is calculated using the PFU/mL, or TCID50 if unavailable. Each 96-well plate has a control column of 6 wells with cells and virus but no compound (negative control, max CPE), a column with cells but no compound or virus (positive control, minimum CPE), and a column with no cells or virus or compound (background plate/reagent control). The control wells with cells but no virus are given an additional 25 μL of growth media containing an equal quantity of sucrose as those wells receiving the viral stock in order to keep consistent in media and volume conditions. The outer wells of the plate are filled with 125 μL of moat media (DMEM, 1% Penn/Strep) to act as a thermal and evaporative moat around the test wells. Following a 5-day incubation period, the plates are read using ATPlite (50 μL added per well), which quantifies the amount of ATP (a measure of cell health) present in each well. Assay plates are read using the Envision luminometer. In parallel, cytotoxicity is examined on an additional 96-well plate treated in an identical manner, but substituting the 25 μL of viral stock for 25 μL of growth media. […] EC50 ranges are as follows: A <0.4 μM; B 0.4-0.8 μM; C >0.8 μM and CC50 ranges are as follows: A >50 μM; B 10-50 μM; C <10 μM.

[1] = system: genotype A, "Long" strain RSV; experiment: RSV-A assay: CPE protection in HEp-2 cells, ATPlite readout; type: cell-based, human respiratory syncytial virus
Outline: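 HEp-2 cells (8,000/well) with 2-fold compound dilutions in duplicate, infected with Long-strain RSV at MOI 0.1 and incubated 5 days. Cell ATP measured by ATPlite luminescence to give EC50; uninfected parallel plate gives CC50.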

[2] = human respiratory syncytial virus, HEp-2, read-out: Human RSV-A (“Long” strain) EC50
[3] = HEp-2 cells, RSV-A Long strain, ATPlite readout, read-out: Human RSV-A (“Long” strain) EC50

SMILES	CC50 (HEp-2 cells) [nM]	EC50 [1, 2] [nM]	EC50 [1, 3] [nM]
COCCOc1cccc(-c2nnc(NC3N=C(c4ccccc4)c4ccccc4NC3=O)o2)c1 (stereo not drawn) [Example 1]	> 50000	> 800	
O=C1Nc2ccccc2C(c2ccccc2)=NC1Nc1nnc(-c2ccccc2)o1 (stereo not drawn) [Example 2]	> 50000	> 800	
O=C1Nc2ccccc2C(c2ccccc2)=NC1Nc1nnc(-c2cccc(F)c2)o1 (stereo not drawn) [Example 3]	> 50000	> 800	
COc1cccc(-c2nnc(NC3N=C(c4ccccc4)c4ccccc4NC3=O)o2)c1 (stereo not drawn) [Example 4]	> 50000	> 800	
O=C1Nc2ccccc2C(c2ccccc2)=NC1Nc1nnc(C2CC2)o1 (stereo not drawn) [Example 5]	> 50000	> 800	
O=C1Nc2ccccc2C(c2ccccc2)=NC1Nc1nnc(-c2ccccc2F)o1 (stereo not drawn) [Example 6]	> 50000	> 800	
O=C1Nc2ccccc2C(c2ccccc2)=N[C@H]1Nc1nnc(-c2ccc(F)cc2)o1 [Example 7b]	10000 to 50000	> 800	
COc1ccc(-c2nnc(NC3N=C(c4ccccc4)c4ccccc4NC3=O)o2)cc1 (stereo not drawn) [Example 8]	> 50000	> 800	
COc1ccccc1-c1nnc(NC2N=C(c3ccccc3)c3ccccc3NC2=O)o1 (stereo not drawn) [Example 9]	> 50000	> 800	
O=C1Nc2ccccc2C(c2ccccc2)=N[C@@H]1Nc1nnc(-c2ccco2)o1 [Example 10a]	> 50000	400 to 800	
O=C1Nc2ccccc2C(c2ccccc2)=N[C@H]1Nc1nnc(-c2ccco2)o1 [Example 10b]	< 10000	> 800	
O=C1Nc2ccccc2C(c2ccccc2)=NC1Nc1nnc(-c2ccccn2)o1 (stereo not drawn) [Example 11]	> 50000	400 to 800	
N#Cc1ccc(-c2nnc(NC3N=C(c4ccccc4)c4ccccc4NC3=O)o2)cc1 (stereo not drawn) [Example 12]	> 50000	400 to 800	
O=C1Nc2ccccc2C(c2ccccc2)=NC1Nc1nnc(-c2ccc(Cl)cc2)o1 (stereo not drawn) [Example 13]	> 50000	< 400	
COc1cc(-c2nnc(NC3N=C(c4ccccc4)c4ccccc4NC3=O)o2)ccc1F (stereo not drawn) [Example 14]	10000 to 50000	< 400	
CC(C)Oc1cccc(-c2nnc(NC3N=C(c4ccccc4)c4ccccc4NC3=O)o2)c1 (stereo not drawn) [Example 15]	> 50000	400 to 800	
O=C1Nc2ccccc2C(c2ccccc2)=NC1Nc1nnc(-c2ccc3ccccc3c2)o1 (stereo not drawn) [Example 16]	> 50000	400 to 800	
O=C1Nc2ccccc2C(c2ccccc2)=N[C@@H]1Nc1nnc(-c2cn(-c3ccc(C(F)(F)F)cn3)nc2N2CCOCC2)o1 [Example 440]		400 to 800	
N#Cc1ccn2ncc(-c3nnc(N[C@H]4N=C(c5ccccc5)c5ccccc5NC4=O)o3)c2c1 [Example 441]		> 800	
O=C1Nc2ccccc2C(c2ccccc2)=N[C@@H]1Nc1ncc(-c2ncc(C(F)(F)F)cc2N2CCOCC2)o1 [Example 442]			< 400

SMILES	CC50 (HEp-2 cells) [nM]	EC50 [1, 2] [nM]	EC50 [1, 3] [nM]
O=C1Nc2ccccc2C(c2ccccc2)=N[C@@H]1Nc1nnc(-c2cn(-c3ccc(C(F)(F)F)nc3)nc2N2CCOCC2)o1 [Example 444]			< 400
O=C1Nc2ccccc2C(c2ccccc2)=N[C@@H]1Nc1nnc(-c2cn(CC3CC3)nc2N2CCOCC2)o1 [Example 446]			< 400
O=C1Nc2ccccc2C(c2ccccc2)=N[C@@H]1Nc1nnc(-c2cn(CC3CC3)nc2N2CCOCC2)o1 [Example 447]			400 to 800
O=C1Nc2ccccc2C(c2ccccc2)=N[C@@H]1Nc1nnc(-c2cn(-c3ccc(F)cn3)nc2N2CCOCC2)o1 [Example 448]		< 400	
COCc1ccn2ncc(-c3nnc(N[C@H]4N=C(c5ccccc5)c5ccccc5NC4=O)o3)c2c1 [Example 449]		> 800	
O=C1Nc2ccccc2C(c2ccccc2)=NC1Nc1nnc(-c2ncc(C(F)(F)F)cc2CCO)o1 (stereo not drawn) [Example 450]		> 800	
COC[C@@H](C)Nc1sc(C(F)(F)F)nc1-c1nnc(N[C@H]2N=C(c3ccccc3)c3ccccc3NC2=O)o1 [Example 451]		400 to 800	
CO[C@@H](C)CNc1sc(C(F)(F)F)nc1-c1nnc(N[C@H]2N=C(c3ccccc3)c3ccccc3NC2=O)o1 [Example 452]		< 400	
O=C1Nc2ccccc2C(c2ccccc2)=N[C@@H]1Nc1nnc(-c2nc(C(F)(F)F)sc2C2=CCOCC2)o1 [Example 453]		< 400	
O=C1Nc2ccccc2C(c2ccccc2)=N[C@@H]1Nc1nnc(-c2nc(C(F)(F)C(F)(F)F)sc2N2CCOCC2)o1 [Example 454]		< 400	
O=C1Nc2ccccc2C(c2ccccc2)=N[C@@H]1Nc1nnc(-c2nc(C3(O)CCC3)sc2N2CCOCC2)o1 [Example 455]		< 400	
COC[C@H]1CCCN1c1sc(C(F)(F)F)nc1-c1nnc(N[C@H]2N=C(c3ccccc3)c3ccccc3NC2=O)o1 [Example 456]		> 800	
COC[C@@H]1CCCN1c1sc(C(F)(F)F)nc1-c1nnc(N[C@H]2N=C(c3ccccc3)c3ccccc3NC2=O)o1 [Example 457]		> 800	
CC(C)(c1nc(-c2nnc(N[C@H]3N=C(c4ccccc4)c4ccccc4NC3=O)o2)c(N2CCOCC2)s1)N1CCOCC1 [Example 459]		< 400	
O=C1Nc2ccccc2C(c2ccccc2)=N[C@@H]1Nc1nnc(-c2nc(C3(C(F)(F)F)CC3)sc2N2CCOCC2)o1 [Example 460]		< 400	
O=C1Nc2ccccc2C(c2ccccc2)=NC1Nc1nnc(-c2ncc(C(F)F)cc2N2CCOCC2)o1 (stereo not drawn) [Example 461]		< 400	
O=C1Nc2ccccc2C(c2ccccc2)=NC1Nc1cc(-c2ccccc2)cnn1 (stereo not drawn) [Example 462]		> 800	
O=C1Nc2ccccc2C(c2ccccc2)=NC1Nc1cc(N2CCOCC2)cnn1 (stereo not drawn) [Example 463]		> 800	
O=C1Nc2ccccc2C(c2ccccc2)=N[C@@H]1Nc1nnc(-c2ncc(C(F)(F)F)cc2N[C@@H]2CCOC2)o1 [Example 464]		< 400	
Cc1nsc(N2CCOCC2)c1-c1nnc(N[C@H]2N=C(c3ccccc3)c3ccccc3NC2=O)o1 [Example 465]		400 to 800	

SMILES	CC50 (HEp-2 cells) [nM]	EC50 [1, 2] [nM]	EC50 [1, 3] [nM]
O=C1Nc2ccccc2C(c2ccccc2)=N[C@@H]1Nc1nnc(-c2ncc(C(F)(F)F)cc2N2CCOc3ccccc32)o1 [Example 468]		> 800	
O=C1Nc2ccccc2C(c2ccccc2)=N[C@@H]1Nc1nnc(-c2ncc(C(F)(F)F)cc2NC2COC2)o1 [Example 469]		< 400	
O=C1Nc2ccccc2C(c2ccccc2)=N[C@@H]1Nc1nnc(-c2ncc(C(F)(F)F)cc2N[C@H]2CCOC2)o1 [Example 470]		> 800	
COCCNc1sccc1-c1nnc(N[C@H]2N=C(c3ccccc3)c3ccccc3NC2=O)o1 [Example 472]		> 800	
COCCNc1sc(C(F)(F)F)nc1-c1nnc(N[C@H]2N=C(c3ccccc3)c3ccccc3NC2=O)o1 [Example 473]		< 400	
O=C1Nc2ccccc2C(c2ccccc2)=N[C@@H]1Nc1nnc(-c2nc(C(F)(F)F)sc2N[C@@H]2CCOC2)o1 [Example 474]		< 400	
O=C1Nc2ccccc2C(c2ccccc2)=N[C@@H]1Nc1nnc(-c2nc(C(F)(F)F)sc2NCC2COC2)o1 [Example 475]		400 to 800	
O=C1Nc2ccccc2C(c2ccccc2)=N[C@@H]1Nc1nnc(-c2oc3cc(F)ccc3c2N2CCOCC2)o1 [Example 476]		400 to 800	
O=C1Nc2ccccc2C(c2ccccc2)=N[C@@H]1Nc1nnc(-c2oc3cccc(F)c3c2N2CCOCC2)o1 [Example 477]		< 400	
CC1(c2nc(-c3nnc(N[C@H]4N=C(c5ccccc5)c5ccccc5NC4=O)o3)c(N3CCOCC3)s2)CCC1 [Example 478]		< 400	
COCCCc1sc(C)nc1-c1nnc(N[C@H]2N=C(c3ccccc3)c3ccccc3NC2=O)o1 [Example 479]		> 800	
O=C1Nc2ccccc2C(c2ccccc2)=N[C@@H]1Nc1nnc(-c2nc(C(F)(F)F)sc2N2CCO[C@@H]3C[C@@H]32)o1 [Example 484]			< 400
O=C1Nc2ccccc2C(c2ccccc2)=N[C@@H]1Nc1nnc(-c2nc(C(F)(F)F)sc2N2CCO[C@H]3C[C@H]32)o1 [Example 485]			> 800
O=C1Nc2ccccc2C(c2ccccc2)=N[C@H]1Nc1nnc(-c2nc(C(F)(F)F)sc2N2CCO[C@@H]3C[C@@H]32)o1 [Example 486]			> 800
O=C1Nc2ccccc2C(c2ccccc2)=N[C@H]1Nc1nnc(-c2nc(C(F)(F)F)sc2N2CCO[C@H]3C[C@H]32)o1 [Example 487]			> 800
O=C1Nc2ccccc2C(c2ccccc2)=N[C@H]1Nc1nnc(-c2cn(CC(F)(F)F)nc2N2CCOCC2)o1 [Example 488]			< 400
O=C1Nc2ccccc2C(c2ccccc2)=N[C@@H]1Nc1nnc(-c2cn(CC(F)(F)F)nc2N2CCOCC2)o1 [Example 489]			> 800
O=C1Nc2ccccc2C(c2ccccc2)=N[C@@H]1Nc1nnc(-c2nc(C3(C(F)(F)F)CCC3)sc2N2CCOCC2)o1 [Example 490]		< 400	
